What all share (assay type): functional, cell-based
Assay [1] has as its system HeLa. The assay can be described thus: Cytotoxicity against human HeLa cells assessed as protease release from damaged cell at 4-100 uM after 24 hrs by luminometry.
The subject of assay [2] is HeLa. As to the kind of experiment: Cytotoxicity against human HeLa cells assessed as protease release from damaged cell after at 4-1000 uM after 24 hrs by luminometry.
Assay [3] concerns HeLa. The assay can be described thus: Cytotoxicity against human HeLa cells after 24 hrs by luminometry.

The structures appear in SMILES notation. Activity calls are given as the source filed them. The rule behind the calls is not given here. Positions of bridges follow the written chain, without caps; N, C: chain ends. Non-standard residues stand in square brackets, D forms with d. Residues, ends and D or L forms follow the SMILES beside them. *: point of attachment. X1 = C[C@@H](OC(C)(C)C)[C@H](NC(=O)[C@@H](NC(=O)[C@@H]1CCC(=O)N1)[C@@H](C)O*)C(=O)O; NHTrityl = c1ccc(C(N*)(c2ccccc2)c2ccccc2)cc1; Pbf = Cc1c(C)c(S(=O)(=O)*)c(C)c2c1OC(C)(C)C2; NMeQ = CN[C@@H](CCC(N)=O)C(=O)O; pGlu = O=C1CC[C@@H](C(=O)O)N1; NMeA = CN[C@@H](C)C(=O)O; Boc = CC(C)(C)OC(=O)*; tBu = CC(C)(C)*

For the compound `CC(C)C[C@@H]1NC(=O)[C@H](C)N(C)C(=O)[C@H]([C@@H](C)O)NC(=O)[C@@H](NC(=O)[C@@H]2CCC(=O)N2)[C@@H](C)OC(=O)[C@H](CCC(N)=O)NC(=O)[C@H](Cc2ccc(O)cc2)NC(=O)[C@H](CCCNC(=N)N)NC1=O` ([pGlu]TT[NMeA]LRYQ; ester 2-C), the result with HeLa [1] was inactive.
Consider `Cc1c(C)c(S(=O)(=O)NC(=N)NCCC[C@H](NC(=O)[C@@H](NC(=O)[C@@H](NC(=O)[C@H](CCC(N)=O)NC(=O)OC(C)(C)C)[C@@H](C)O)[C@@H](C)OC(C)(C)C)C(=O)N[C@@H](CC(C)C)C(=O)N[C@@H](CCC(=O)NC(c2ccccc2)(c2ccccc2)c2ccccc2)C(=O)N[C@@H](Cc2ccc(OC(C)(C)C)cc2)C(=O)N[C@@H](C)C(=O)O)c(C)c2c1OC(C)(C)C2` (Boc-QTT(tBu)R(Pbf)LE(NHTrityl)Y(tBu)A-OH), for which the result in the assay with HeLa [2] was inactive.
For orientation: IC50 means the concentration needed to halve the response being measured. Consider `C=C(C)[C@H]1Cc2c(ccc3c2O[C@@H]2COc4cc(OC)c(OC)cc4[C@@H]2C3=O)O1` [ROTENONE], for which, in the assay with HeLa [3], the IC50 stood at 78 µM.
In the case of `CC(C)C[C@@H]1NC(=O)[C@H](C)N(C)C(=O)[C@H]([C@@H](C)O)NC(=O)[C@@H](NC(=O)[C@@H]2CCC(=O)N2)[C@@H](C)OC(=O)[C@H](CCC(N)=O)N(C)C(=O)[C@H](Cc2ccc(O)cc2)NC(=O)[C@H](CCCNC(=N)N)NC1=O` ([pGlu]TT[NMeA]LRY[NMeQ]; ester 2-C), the outcome in the assay on HeLa [1] was inactive.
The same measure, in the same setting: then `CC(C)C[C@@H]1NC(=O)[C@H](CCCNC(=N)N)NC(=O)[C@H]([C@@H](C)O)NC(=O)[C@@H](NC(=O)[C@@H]2CCC(=O)N2)[C@@H](C)OC(=O)[C@H](C)NC(=O)[C@H](Cc2ccc(O)cc2)NC(=O)[C@H](CCC(N)=O)NC1=O` ([pGlu]TTRLQYA; ester 2-C), with “inactive”.
As to `Cc1c(C)c(S(=O)(=O)NC(=N)NCCC[C@H](N)C(=O)N[C@@H](CC(C)C)C(=O)N[C@@H](CCC(=O)NC(c2ccccc2)(c2ccccc2)c2ccccc2)C(=O)N[C@@H](Cc2ccc(OC(C)(C)C)cc2)C(=O)N[C@@H](C)C(=O)O[C@H](C)[C@H](NC(=O)[C@@H]2CCC(=O)N2)C(=O)N[C@H](C(=O)O)[C@@H](C)OC(C)(C)C)c(C)c2c1OC(C)(C)C2` (H-R(Pbf)LE(NHTrityl)Y(tBu)A-X1), the 50% inhibitory concentration (IC50) in the assay with HeLa [3] worked out at 2260 µM.
As to `Cc1c(C)c(S(=O)(=O)NC(=N)NCCC[C@@H]2NC(=O)[C@H]([C@@H](C)OC(C)(C)C)NC(=O)[C@@H](NC(=O)[C@@H](N)CCC(N)=O)[C@@H](C)OC(=O)[C@H](C)NC(=O)[C@H](Cc3ccc(OC(C)(C)C)cc3)NC(=O)[C@H](CCC(=O)NC(c3ccccc3)(c3ccccc3)c3ccccc3)NC(=O)[C@H](CC(C)C)NC2=O)c(C)c2c1OC(C)(C)C2` (H-QTT(tBu)R(Pbf)LE(NHTrityl)Y(tBu)A; ester 2-C), the outcome with HeLa [1] was inactive.
